Experimental data taken from patent publication US20050009057A1, “Assay for detecting the presence of processing inhibitory antibodies against the Apical Membrane Antigen-1 of Plasmodium falciparum in biological samples” (priority 2003, published 2005).
Read-outs that look alike come from different tables or passages of the source.

Columns and labels:
[1] = system: P. falciparum schizonts; assay: Giemsa stained thin smears after rupture cycle (schizont maturation, PCM); format: cell-based, Plasmodium falciparum; details: for schizont maturation / development on giemsa stained thin smears / Protease inhibitor Clusters of Merozoites (PCM) on giemsa stained slides: inhibitor concentrations as in FIG. 6A
Protocol: (§1) Protease inhibitors. Protease inhibitors were tested for their effect on AMA-1 processing. All inhibitors were from Sigma Chemicals. PMSF, pepstatin and TPCK were dissolved in 100% ethanol. Antipain, leupeptin, and 1,10-phenanthroline stocks were made in water. EDTA and EGTA stocks were made in PBS (pH adjusted to 7.2), TLCK was prepared in 1 mM HCl, E64 and chymostatin were prepared in DMSO. All stocks were at 100× concentration. 1.5 μl of the protease inhibitor or its respective solvent control was added to 15 μl PBS and then 135 μl of (1×10^7/ml) Percoll purified mid-stage schizonts were added. The processing assay was carried out as described above. Parallel assay with protease inhibitors was carried out in two similarly prepared plates to which RBC were also added to a final 4% hematocrit. Parasites in the first plate were allowed to invade in suspension at 37° C. and thin smears were prepared after the rupture cycle for giemsa staining and examination for the presence of Protease inhibitor Clusters of Merozoites (PCM) (Lyon and Haynes, 1986, J. Immunol. 136, 2245-2251). In the second plate parasites (135 μl of 5×10^6/ml schizonts+RBC at 4% hematocrit) were incubated overnight and ring forms were quantitated by flow cytometry as a measure of parasite invasion (Haynes et al., 2002, supra).

[2] = system: P. falciparum merozoite invasion of RBC; assay: microbe, parasite or virus in culture; format: cell-based, Plasmodium falciparum; details: for inhibition of RBC invasion: 1 mM
Protocol: as §1

[3] = system: PfAMA-1 processing on merozoites; assay: AMA-1 processing assay / processing inhibition assay (PIA), western blot; format: cell-based, P. falciparum clone 3D7; details: for accumulation of PfAMA-1 66: FIG. 6A, 6B; for formation of trapped PfAMA-1 52 and PfAMA-1 48+44: with trapping antibodies (1:2500 anti-AMA-1 sera pool)
Protocol: AMA-1 processing assay, or processing inhibition assay (PIA). P. falciparum clone 3D7 cultures were prepared as described previously (Haynes and Moch, 2002, Methods Mol. Med. 72, 489-497), culture media included 10% heat inactivated normal human serum in bicarbonate-containing RPMI 1640 containing final 0.42 mM Ca^+2 and 0.40 mM Mg^+2. Fifteen microliters of heat inactivated rabbit serum (dialyzed against RPMI 1640 or used directly after heat inactivation) or purified IgG or Fab fragments was mixed with 135 μl of synchronized (Haynes and Moch, 2002, supra), Percoll-alanine purified (Kanaani and Ginsburg, 1989, J. Biol. Chem. 264, 3194-3199), mid-stage (˜8 nuclei), >90% pure schizonts (1×10^7 per ml) in a 48 well culture plate. PBS was used as a diluent if necessary. The plate was placed in a plastic bag, gassed with 5% O2-5% CO2, heatsealed, and incubated at 37° C. for ˜6 h (Haynes et al., 2002, Methods Mol. Med. 72, 535-554). Aliquots from a control culture flask were taken to monitor the percent rupture of schizonts by hemocytometer. After ˜90% schizonts had ruptured, the contents of each well were transferred to a microfuge tube and centrifuged at 10,000× g for 5 min. The supernatant was aspirated and the resulting parasite pellet was washed with 0.5 ml chilled PBS and centrifuged as before. The supernatant was discarded and 150 μl of 1× NuPAGE sample buffer (Invitrogen) was added to the tubes, samples were frozen at −30° C. until analyzed. Soluble forms of AMA-1 were immuno-precipitated from the processing assay culture supernatants or from culture supernatant of routinely maintained parasites using MagnaBind Goat anti-Rabbit IgG coated Magnetic Beads (Pierce). Two types of western blots have been used to detect AMA-1 fragments. First set of westerns in FIGS. 1 to 6 have been developed using biotinylated polyclonal IgG against recombinant AMA-1. A second set of western blots, FIG. 6 onwards, has been developed using two biotinylated primary antibodies, mAb 28G2dc1 (1:1000) and polyclonal anti-AMA-1 IgG (1:1000) used simultaneously in order to immunostain all the AMA-1 specific fragments on the blot.
as §1
PAGE and Western blotting. Samples were briefly sonicated with a microtip sonicator, heated at 80° C. for 2 min, spun down and 16 μl was applied per well to a precast 4-12% gradient polyacrylamide gel (NuPAGE Bis-Tris; Invitrogen). Samples were run under non-reduced conditions unless specified. DTT at 50 mM was added to samples resolved under reduced conditions. Proteins from the gel were electrophoretically transferred to nitrocellulose membrane and blocked with 5% BSA in PBS containing 0.05% Tween-20 overnight at 4° C. […]

[4] = EDTA, EGTA 1 mM (2-0.25 mM in dose response)

SMILES	schizont maturation / development on giemsa stained thin smears [1]	Protease inhibitor Clusters of Merozoites (PCM) on giemsa stained slides [1]	formation of trapped PfAMA-1 52 and PfAMA-1 48+44 [3]	further results
c1cnc2c(c1)ccc1cccnc12 [1,10-phenanthroline]	interrupted schizont maturation			
CC(C)C[C@H](NC(=O)[C@H]1O[C@@H]1C(=O)O)C(=O)NCCCCN=C(N)N [E64]		PCM's were observed		
O=C(O)CN(CCN(CC(=O)O)CC(=O)O)CC(=O)O [EDTA]			inhibited the formation of only PfAMA-148+44	inhibition of RBC invasion [2]: ~40%; accumulation of PfAMA-1 66 [3, 4]: caused accumulation of PfAMA-166; schizont rupture [1]: did not affect schizont rupture
O=C(O)CN(CCOCCOCCN(CC(=O)O)CC(=O)O)CC(=O)O [EGTA]			inhibited the formation of only PfAMA-148+44	inhibition of RBC invasion [2]: ~20%; accumulation of PfAMA-1 66 [3, 4]: caused accumulation of PfAMA-166; schizont rupture ([1]; 1 mM): did not affect schizont rupture
O=S(=O)(F)Cc1ccccc1 [PMSF]	interrupted schizont maturation			
Cc1ccc(S(=O)(=O)N[C@@H](CCCCN)C(=O)CCl)cc1 [TLCK]	interrupted schizont maturation			
Cc1ccc(S(=O)(=O)N[C@@H](Cc2ccccc2)C(=O)CCl)cc1 [TPCK]	interrupted schizont maturation			
CC(C)C[C@H](NC(=O)[C@@H](NC(=O)N[C@@H](Cc1ccccc1)C(=O)O)[C@@H]1CCN=C(N)N1)C(=O)N[C@H](C=O)Cc1ccccc1 [chymostatin]	did not block schizont development	PCM's were observed	formation of both PfAMA-152 and PfAMA-148+44 were inhibited	inhibition at 100 µM ([2]; Plasmodium falciparum, read-out: inhibition of merozoite invasion): > 90%; accumulation of PfAMA-1 66 ([3]; chymostatin 100-12.5 μM): found to accumulate
CC(=O)N[C@@H](CC(C)C)C(=O)N[C@@H](CC(C)C)C(=O)N[C@H](C=O)CCCNC(=N)N [leupeptin]		PCM's were observed		
